Data taken from patent US20050112185A1, “Positively charged lipid and liposome with the lipid” (priority 2002, published 2005).

Legend:
[1] = test system: mouse melanoma cell B16BL6; experiment: Gene delivery efficiency (luciferase gene) with varied amounts of DNA, B16BL6 cells; type: cell-based; settings: DNA:liposome 1:12 (w/w), luciferase gene 0.5, 1, 2 and 5 μg tested, FIGS. 2a-2c
Description: Mouse melanoma cells […] were inoculated in MEM(minimum essential medium, Gibco-BRL, USA) containing 5% (v/v) fetal bovine serum, streptomycin and penicillin, and incubated in an incubator(NAPCO, USA) under an environment of 5% (v/v) CO2 at 37° C., which were aliquoted in 24-well plate to reach the cell density of 1×10^5 cell/well or 5×10^4 cell/well, and further incubated for 24 hrs to stabilize the cells.
(§1) For the evaluation of gene delivery efficiency of liposomes with varied amount of DNA, DNA-liposome complex was prepared by mixing DNA and liposome(1:12, w/w) in 500 μl of serum-free medium, while varying the amounts of luciferase gene as 0.5 μg, 1 μg, 2 μg and 5 μg. […] After incubation, media were discarded, cells were lysed by adding 100 μl of Luciferase cell culture lysis reagent(Promega, USA), and centrifuged at 14000 rpm for 10 sec. And then, 10 μl of supernatant was mixed with 20 μl of a substrate of luciferase, and luminescence was measured by using Luminometer(Mini lumat LB9506, EG&G BERTHOLD). Proteins in each well were quantitated by DC protein assay(Bio-rad, USA)(see: FIGS. 1a-1c and 2a-2c).

[2] = test system: 293 human kidney cell line; experiment: Gene delivery efficiency (luciferase gene) with varied amounts of DNA, 293 cells; type: cell-based; settings: DNA:liposome 1:12 (w/w), luciferase gene 0.5, 1, 2 and 5 μg tested, FIGS. 1a-1c
Description: as §1

| Substance | amount of DNA showing the highest gene delivery efficiency [1] [µg] | amount of DNA showing the highest gene delivery efficiency [2] [µg] |
| --- | --- | --- |
| lysine-aspartate-hexadecanol [KD-DP] | 0.5 | 2 |
| lysine-aspartate-tetradecanol [KD-DM] | 1 | 1 |
| lysine-glutamate-tetradecanol [KE-DM] | – | 2 |
